Tests used:
NSCs = assay: Sin-1-induced ZBR1 fluorescence change; format: cell-based, rat; settings: 100 μM Sin-1, first 15 min; vehicle 105 ± 7%
[1] = common buffers, physiological pH; cited from earlier work
[2] = pH 9.5, excitation 572 nm; cited from earlier work

| Compound | Fluorescence intensity of ZBR1 after Sin-1 (NSCs) | Half-life [1] | Quantum yield (standard) [2] |
| --- | --- | --- | --- |
| N=c1c[n+](N2CCOCC2)[n-]o1 [Sin-1, 3-morpholinosydnonimine] | 89 ± 4% | 14 to 26 min | – |
| O=c1ccc2nc3ccc(O)cc3oc-2c1 [resorufin] | – | – | 0.74 |

Source: publication PMC3791137 (Journal of the American Chemical Society, 2013)
